Results taken from patent US20240158392A1 (Janssen Biotech, Inc., priority 2021, published 2024).

Each compound was assayed against SIK2 (Homo sapiens, UniProt Q9H0K1) (assay: SIK2 Enzymatic Assay High Version 2 (High ATP)). Settings: not given.
Chain of SIK2 (Q9H0K1 whole entry, species assumed): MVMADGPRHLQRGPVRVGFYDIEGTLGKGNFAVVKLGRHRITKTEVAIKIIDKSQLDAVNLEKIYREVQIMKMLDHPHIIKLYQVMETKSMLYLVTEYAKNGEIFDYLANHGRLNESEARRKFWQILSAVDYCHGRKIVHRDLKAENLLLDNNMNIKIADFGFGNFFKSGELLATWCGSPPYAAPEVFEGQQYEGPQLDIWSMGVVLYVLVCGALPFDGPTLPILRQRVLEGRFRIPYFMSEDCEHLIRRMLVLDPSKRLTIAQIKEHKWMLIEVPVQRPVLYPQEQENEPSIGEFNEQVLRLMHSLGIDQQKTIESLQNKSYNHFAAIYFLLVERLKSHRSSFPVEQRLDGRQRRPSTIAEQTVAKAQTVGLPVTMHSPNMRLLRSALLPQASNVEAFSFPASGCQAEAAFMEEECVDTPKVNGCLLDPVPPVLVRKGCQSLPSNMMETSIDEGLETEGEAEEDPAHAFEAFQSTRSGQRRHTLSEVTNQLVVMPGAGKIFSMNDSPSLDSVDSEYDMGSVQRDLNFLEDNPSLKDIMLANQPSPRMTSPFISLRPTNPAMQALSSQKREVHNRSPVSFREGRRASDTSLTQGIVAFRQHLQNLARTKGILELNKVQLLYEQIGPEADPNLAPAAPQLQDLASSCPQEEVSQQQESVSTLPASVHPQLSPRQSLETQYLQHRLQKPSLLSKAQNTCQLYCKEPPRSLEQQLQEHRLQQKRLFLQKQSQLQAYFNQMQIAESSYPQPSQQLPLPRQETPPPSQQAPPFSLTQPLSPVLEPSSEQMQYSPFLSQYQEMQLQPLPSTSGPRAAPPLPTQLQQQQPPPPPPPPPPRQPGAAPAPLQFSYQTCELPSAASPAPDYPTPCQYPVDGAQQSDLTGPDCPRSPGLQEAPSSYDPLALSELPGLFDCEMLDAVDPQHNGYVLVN
Format: biochemical
Method in brief: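 At room temperature, enzyme (6 nM, 2× final) was preincubated with compound for 30 min, then 6 mM ATP and 400 μM HDAC5tide (both 2× final) were added for 2 h. ADP formed was measured by ADP-Glo Max (2 h reagent, 1 h detection) using luminescence.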
Compound `Cc1cc(-c2ccn3nc(Nc4nn(C)cc4F)cc3c2)c(O[C@H]2C[C@H]3COC[C@@H](C2)N3C)cn1` [Example 118, N-(4-fluoro-1-methyl-1H-pyrazol-3-yl)-5-(2-methyl-5-(((1R,5S,7s)-9-methyl-3-oxa-9-azabicyclo[3.3.1]nonan-7-yl)oxy)pyridin-4-yl)pyrazolo[1,5-a]pyridin-2-amine] has an IC50 of under 0.000847 µM.
`Cc1cc(-c2ccn3nc(Nc4cn(C)nc4F)cc3c2)c(O[C@H]2C[C@H]3COC[C@@H](C2)N3C)cn1` [Example 119, N-(3-fluoro-1-methyl-1H-pyrazol-4-yl)-5-(2-methyl-5-(((1R,5S,7s)-9-methyl-3-oxa-9-azabicyclo[3.3.1]nonan-7-yl)oxy)pyridin-4-yl)pyrazolo[1,5-a]pyridin-2-amine] gave an IC50 of 0.00127 µM.
`Cc1cc(-c2ccn3nc(Nc4cc(F)n(C)n4)cc3c2)c(O[C@H]2C[C@H]3COC[C@@H](C2)N3C)cn1` [Example 120, N-(5-fluoro-1-methyl-1H-pyrazol-3-yl)-5-(2-methyl-5-(((1R,5S,7s)-9-methyl-3-oxa-9-azabicyclo[3.3.1]nonan-7-yl)oxy)pyridin-4-yl)pyrazolo[1,5-a]pyridin-2-amine] was tested, and the IC50 was under 0.000847 µM.
`Cc1cc(-c2ccn3nc(Nc4cnn(CC(C)(C)O)c4)cc3c2)c(O[C@H]2C[C@H]3COC[C@@H](C2)N3)cn1` [Example 121] showed an IC50 of 0.00116 µM.
With `Cc1cc(-c2ccn3nc(Nc4cn(CC(C)(C)O)nc4C(=O)C(F)(F)F)cc3c2)c(O[C@H]2C[C@H]3COC[C@@H](C2)N3)cn1` [Example 122, 1-(4-((5-(5-(((1R,5S,7s)-3-oxa-9-azabicyclo[3.3.1]nonan-7-yl)oxy)-2-methylpyridin-4-yl)pyrazolo[1,5-a]pyridin-2-yl)amino)-1-(2-hydroxy-2-methylpropyl)-1H-pyrazol-3-yl)-2,2,2-trifluoroethan-1-one] the IC50 was 2.43 µM.
`Cc1cc(-c2ccn3nc(Nc4cnn(C)c4)cc3c2)c(O[C@H]2C[C@H]3COC[C@@H](C2)N3)cn1` [Example 123, 7-endo-5-[2-methyl-5-[[(1S,5R)-3-oxa-9-azabicyclo[3.3.1]nonan-7-yl]oxy]-4-pyridyl]-N-(1-methylpyrazol-4-yl)pyrazolo[1,5-a]pyridin-2-amine] gave an IC50 of 0.00094 µM.
`Cc1cc(-c2ccn3nc(Nc4cnn(C)c4)cc3c2)c(O[C@H]2C[C@H]3COC[C@@H](C2)N3C)cn1` [Example 124] was tested, and the IC50 was 0.00124 µM.
With `Cc1cc(-c2ccn3nc(Nc4ccn(C)n4)cc3c2)c(O[C@H]2C[C@H]3COC[C@@H](C2)N3)cn1` [Example 125, endo-5-(5-(((1R,5S,7s)-3-oxa-9-azabicyclo[3.3.1]nonan-7-yl)oxy)-2-methylpyridin-4-yl)-N-(1-methyl-1H-pyrazol-3-yl)pyrazolo[1,5-a]pyridin-2-amine] the IC50 was under 0.000847 µM.
In the case of `Cc1cc(-c2ccn3nc(Nc4ccc(F)cn4)cc3c2)c(O[C@H]2C[C@H]3COC[C@@H](C2)N3C)cn1` [Example 126], the IC50 is reported as under 0.000847 µM.
`Cc1cc(-c2ccn3nc(Nc4ccc(F)cn4)cc3c2)c(O[C@H]2C[C@H]3COC[C@@H](C2)N3)cn1` [Example 127, 5-(5-(((1R,5S,7s)-3-oxa-9-azabicyclo[3.3.1]nonan-7-yl)oxy)-2-methylpyridin-4-yl)-N-(5-fluoropyridin-2-yl)pyrazolo[1,5-a]pyridin-2-amine] was tested, and the IC50 was under 0.000847 µM.
Work on `Cc1cc(-c2ccn3nc(Nc4ccccn4)cc3c2)c(OC[C@@H]2CNCCO2)cn1` [Example 130, 5-[2-methyl-5-[[(2S)-morpholin-2-yl]methoxy]-4-pyridyl]-N-(2-pyridyl)pyrazolo[1,5-a]pyridin-2-amine] yielded an IC50 of 0.00429 µM.
`CCN1[C@@H]2COC[C@H]1C[C@@H](Oc1cnc(C)cc1-c1ccn3nc(NC(=O)C4CC4)cc3c1)C2` [Example 161, 7-endo-N-(5-(5-(((1R,5S,7s)-9-ethyl-3-oxa-9-azabicyclo[3.3.1]nonan-7-yl)oxy)-2-methylpyridin-4-yl)pyrazolo[1,5-a]pyridin-2-yl)cyclopropanecarboxamide] was tested, and the IC50 was under 0.000847 µM.
`Cc1cc(-c2ccn3nc(NC(=O)C4CC4)cc3c2)c(O[C@H]2[C@@H]3CN(C)[C@H]2CO3)cn1` [Example 164, N-(5-(2-methyl-5-(((1S,4S,7R)-5-methyl-2-oxa-5-azabicyclo[2.2.1]heptan-7-yl)oxy)pyridin-4-yl)pyrazolo[1,5-a]pyridin-2-yl)cyclopropanecarboxamide] was tested, and the IC50 was 0.218 µM.
In the case of `Cc1cc(-c2ccn3nc(NC(=O)C4CC4)cc3c2)c(O[C@@H]2[C@@H]3CO[C@H]2CN3)cn1` [Example 165, N-(5-(5-(((1S,4S,7R)-2-oxa-5-azabicyclo[2.2.1]heptan-7-yl)oxy)-2-methylpyridin-4-yl)pyrazolo[1,5-a]pyridin-2-yl)cyclopropanecarboxamide], the IC50 is reported as 0.00823 µM.
`CNC(=O)c1ccnc(Nc2cc3cc(-c4cc(C)ncc4O[C@H]4C[C@H]5COC[C@@H](C4)N5)ccn3n2)c1` [Example 172, 2-((5-(5-(((1R,5S,7s)-3-oxa-9-azabicyclo[3.3.1]nonan-7-yl)oxy)-2-methylpyridin-4-yl)pyrazolo[1,5-a]pyridin-2-yl)amino)-N-methylisonicotinamide] gave an IC50 of 0.000876 µM.
`CNC(=O)c1ccc(Nc2cc3cc(-c4cc(C)ncc4O[C@H]4C[C@H]5COC[C@@H](C4)N5)ccn3n2)nc1` [Example 173, 6-((5-(5-(((1R,5S,7s)-3-oxa-9-azabicyclo[3.3.1]nonan-7-yl)oxy)-2-methylpyridin-4-yl)pyrazolo[1,5-a]pyridin-2-yl)amino)-N-methylnicotinamide] showed an IC50 of under 0.000847 µM.
Work on `Cc1cc(-c2ccn3nc(Nc4cc(C(F)(F)F)nn4C)cc3c2)c(O[C@H]2C[C@H]3COC[C@@H](C2)N3C)cn1` [Example 174, N-(1-methyl-3-(trifluoromethyl)-1H-pyrazol-5-yl)-5-(2-methyl-5-(((1R,5S,7s)-9-methyl-3-oxa-9-azabicyclo[3.3.1]nonan-7-yl)oxy)pyridin-4-yl)pyrazolo[1,5-a]pyridin-2-amine] yielded an IC50 of 0.108 µM.

Same assay, conditions: enzyme 6 nM, 6 mM ATP and 400 μM HDAC5tide (each 2× final concentration); 30 minutes pre-incubation, 2 hours; ADP-Glo Max luminescence; read-out: SIK2 high ATP IC50 (μM) (Test Example 2)
`Cc1cc(-c2ccn3nc(Nc4cnn(C)c4)cc3c2)c(OC[C@@H]2CNCCO2)cn1` [Example 128, 5-[2-methyl-5-[[(2S)-morpholin-2-yl]methoxy]-4-pyridyl]-N-(1-methylpyrazol-4-yl)pyrazolo[1,5-a]pyridin-2-amine] gave an IC50 of 0.0249 µM.
With `Cc1cc(-c2ccn3nc(Nc4cccnc4)cc3c2)c(OC[C@@H]2CNCCO2)cn1` [Example 131, 5-[2-methyl-5-[[(2S)-morpholin-2-yl]methoxy]-4-pyridyl]-N-(3-pyridyl)pyrazolo[1,5-a]pyridin-2-amine] the IC50 was 0.0524 µM.
Compound `Cc1cc(-c2ccn3nc(Nc4ccncn4)cc3c2)c(OC[C@@H]2CNCCO2)cn1` [Example 132, 5-[2-methyl-5-[[(2S)-morpholin-2-yl]methoxy]-4-pyridyl]-N-pyrimidin-4-yl-pyrazolo[1,5-a]pyridin-2-amine] has an IC50 of 0.00951 µM.
`Cc1cc(-c2ccn3nc(Nc4cnn(C(C)C)c4)cc3c2)c(OC[C@@H]2CNCCO2)cn1` [Example 133, N-(1-isopropylpyrazol-4-yl)-5-[2-methyl-5-[[(2S)-morpholin-2-yl]methoxy]-4-pyridyl]pyrazolo[1,5-a]pyridin-2-amine] was tested, and the IC50 was 0.00845 µM.
With `Cc1cc(-c2ccn3nc(Nc4cccnn4)cc3c2)c(OC[C@@H]2CNCCO2)cn1` [Example 134, 5-[2-methyl-5-[[(2S)-morpholin-2-yl]methoxy]-4-pyridyl]-N-pyridazin-3-yl-pyrazolo[1,5-a]pyridin-2-amine] the IC50 was 0.0128 µM.
Compound `Cc1cc(-c2ccn3nc(Nc4ccn(C(C)C)n4)cc3c2)c(OC[C@@H]2CNCCO2)cn1` [Example 135, N-(1-isopropylpyrazol-3-yl)-5-[2-methyl-5-[[(2S)-morpholin-2-yl]methoxy]-4-pyridyl]pyrazolo[1,5-a]pyridin-2-amine] has an IC50 of 0.00986 µM.
Work on `Cc1cc(-c2ccn3nc(NC(=O)C4CC4)cc3c2)c(O[C@H]2CC[C@](C)(O)CC2)cn1` [Example 151, trans-N-(5-(5-(((1r,4r)-4-hydroxy-4-methylcyclohexyl)oxy)-2-methylpyridin-4-yl)pyrazolo[1,5-a]pyridin-2-yl)cyclopropanecarboxamide] yielded an IC50 of 0.00378 µM.
Compound `Cc1cc(-c2ccn3nc(NC(=O)C4CC4)cc3c2)c(OCC2(NC3CC3)CCC2)cn1` [Example 157, N-[5-[5-[[1-(cyclopropylamino)cyclobutyl]methoxy]-2-methyl-4-pyridyl]pyrazolo[1,5-a]pyridin-2-yl]cyclopropanecarboxamide] has an IC50 of 0.0708 µM.
`Cc1cc(-c2ccn3nc(Nc4ccn(C)n4)cc3c2)c(OCC2(N)CC(F)(F)C2)cn1` [Example 162, 5-[5-[(1-amino-3,3-difluoro-cyclobutyl)methoxy]-2-methyl-4-pyridyl]-N-(1-methylpyrazol-3-yl)pyrazolo[1,5-a]pyridin-2-amine] was tested, and the IC50 was 0.0196 µM.
For `Cc1cc(-c2ccn3nc(Nc4cnn(C)c4)cc3c2)c(O[C@H]2CC[C@](C)(O)CC2)cn1` [Example 163, (1r,4r)-1-methyl-4-((6-methyl-4-(2-((1-methyl-1H-pyrazol-4-yl)amino)pyrazolo[1,5-a]pyridin-5-yl)pyridin-3-yl)oxy)cyclohexan-1-ol], the IC50 was 0.00795 µM.
In the case of `Cc1cc(-c2ccn3nc(NC(=O)C4CC4)cc3c2)c(OC2CCC(=O)CC2)cn1` [Example 186, N-[5-[2-methyl-5-(4-oxocyclohexoxy)-4-pyridyl]pyrazolo[1,5-a]pyridin-2-yl]cyclopropanecarboxamide], the IC50 is reported as 0.0164 µM.
In the case of `CC#Cc1cc(-c2ccn3nc(Nc4ccn(C)n4)cc3c2)c(O[C@H]2CC[C@H](O)CC2)cn1` [Example 187, trans-4-[[4-[2-[(1-methylpyrazol-3-yl)amino]pyrazolo[1,5-a]pyridin-5-yl]-6-prop-1-ynyl-3-pyridyl]oxy]cyclohexanol], the IC50 is reported as 0.00407 µM.
`Cc1cc(-c2ccn3nc(NC(=O)C4CC4)cc3c2)c(O[C@H]2CC[C@@](O)(C(F)(F)F)CC2)cn1` [Example 191, N-(5-(5-(((1r,4r)-4-hydroxy-4-(trifluoromethyl)cyclohexyl)oxy)-2-methylpyridin-4-yl)pyrazolo[1,5-a]pyridin-2-yl)cyclopropanecarboxamide] was tested, and the IC50 was 0.00251 µM.
